In the NIST ThermoML archive (doi:10.1016/j.jct.2016.03.036):
Values joined by “and” are separate entries in the source; they are usually repeats but may differ in a detail not shown here. Identical values can stand only once.

Assay: xn = mol fraction of the nth substance listed
Conditions: Gas, Spherical resonator

[Ar] [argon] + O=C=O
Conditions	speed of sound
350.01 K, 487.4 kPa, x2 = 0.501	308.87 m/s
350.01 K, 500.81 kPa, x2 = 0.7498	296.88 m/s
350.01 K, 1987.2 kPa, x2 = 0.7498	293.21 m/s
350.01 K, 1987.3 kPa, x2 = 0.7498	293.13 m/s
350.01 K, 1987.4 kPa, x2 = 0.7498	293.08 m/s
350.01 K, 1989.8 kPa, x2 = 0.501	307.6 m/s and 307.57 m/s
350.01 K, 1990 kPa, x2 = 0.501	307.46 m/s
350.01 K, 4001.2 kPa, x2 = 0.501	306.39 m/s and 306.37 m/s
350.01 K, 4001.5 kPa, x2 = 0.501	306.3 m/s
350.01 K, 4010.3 kPa, x2 = 0.7498	288.58 m/s and 288.52 m/s
350.01 K, 4010.6 kPa, x2 = 0.7498	288.5 m/s
350.01 K, 6002.2 kPa, x2 = 0.501	305.92 m/s and 305.92 m/s
350.01 K, 6002.6 kPa, x2 = 0.501	305.94 m/s
350.01 K, 6017.8 kPa, x2 = 0.7498	284.82 m/s and 284.81 m/s
350.01 K, 6018.2 kPa, x2 = 0.7498	284.8 m/s
350.01 K, 7290.6 kPa, x2 = 0.501	306.26 m/s and 306.02 m/s
350.01 K, 7291.2 kPa, x2 = 0.501	306.19 m/s
350.01 K, 8200.3 kPa, x2 = 0.7498	282.09 m/s and 282.08 m/s
350.01 K, 8201 kPa, x2 = 0.7498	282.12 m/s
400.13 K, 501.93 kPa, x2 = 0.7498	316.14 m/s
400.13 K, 1988.1 kPa, x2 = 0.7498	314.38 m/s and 314.32 m/s
400.13 K, 1988.3 kPa, x2 = 0.7498	314.31 m/s
400.13 K, 4018.3 kPa, x2 = 0.7498	312.3 m/s and 312.25 m/s
400.13 K, 4018.6 kPa, x2 = 0.7498	312.17 m/s
400.13 K, 6013.1 kPa, x2 = 0.7498	310.98 m/s and 310.94 m/s
400.13 K, 6013.5 kPa, x2 = 0.7498	310.89 m/s
400.13 K, 7954.4 kPa, x2 = 0.7498	310.44 m/s
400.13 K, 7954.5 kPa, x2 = 0.7498	310.43 m/s
400.13 K, 7955.1 kPa, x2 = 0.7498	310.44 m/s
400.19 K, 2000.8 kPa, x2 = 0.501	328.69 m/s and 328.63 m/s
400.19 K, 2000.9 kPa, x2 = 0.501	328.52 m/s
400.2 K, 451.92 kPa, x2 = 0.501	328.79 m/s
400.2 K, 4008.7 kPa, x2 = 0.501	328.95 m/s and 329.02 m/s
400.2 K, 4009 kPa, x2 = 0.501	328.85 m/s
400.2 K, 5980.4 kPa, x2 = 0.501	329.82 m/s and 329.89 m/s
400.2 K, 5980.8 kPa, x2 = 0.501	329.73 m/s
400.2 K, 7411 kPa, x2 = 0.501	330.82 m/s
400.2 K, 7411.2 kPa, x2 = 0.501	330.79 m/s
400.2 K, 7411.7 kPa, x2 = 0.501	330.75 m/s
500.46 K, 1988.3 kPa, x2 = 0.501	365.88 m/s and 365.86 m/s
500.46 K, 1988.4 kPa, x2 = 0.501	365.73 m/s
500.46 K, 4007.9 kPa, x2 = 0.501	367.67 m/s and 367.61 m/s
500.46 K, 4008.1 kPa, x2 = 0.501	367.56 m/s
500.46 K, 6008.3 kPa, x2 = 0.501	369.75 m/s and 369.73 m/s
500.46 K, 6008.7 kPa, x2 = 0.501	369.69 m/s
500.46 K, 7264.4 kPa, x2 = 0.501	371.24 m/s and 371.28 m/s
500.46 K, 7264.8 kPa, x2 = 0.501	371.19 m/s
500.48 K, 501.81 kPa, x2 = 0.7498	351 m/s
500.48 K, 2003.9 kPa, x2 = 0.7498	351.19 m/s and 351.23 m/s
500.48 K, 2004 kPa, x2 = 0.7498	351.03 m/s
500.48 K, 4010 kPa, x2 = 0.7498	351.64 m/s and 351.63 m/s
500.48 K, 4010.3 kPa, x2 = 0.7498	351.5 m/s
500.48 K, 6000.8 kPa, x2 = 0.7498	352.54 m/s and 352.49 m/s
500.48 K, 6001.2 kPa, x2 = 0.7498	352.39 m/s
500.49 K, 8007.4 kPa, x2 = 0.7498	353.87 m/s
500.49 K, 8007.5 kPa, x2 = 0.7498	353.82 m/s
500.49 K, 8008 kPa, x2 = 0.7498	353.78 m/s
500.5 K, 476.59 kPa, x2 = 0.501	364.75 m/s
